# Legend:
# [1] = system: glucocorticoid receptor function; assay: one or more of the above assays (GR binding and glucocorticoid receptor cell assays: aromatase, IL-6, TAT, MMTV-Luc, IL-8, ICAM-Luc); format: cell-based; settings: assay not specified per compound
# [2] = system: Human osteosarcoma MG-63 cells; assay: Inhibition of osteocalcin production from osteoblast cell line MG-63; format: cell-based; settings: Vitamin D 10 nM, 48 hours
# Description: 7. Inhibition of Osteocalcin Production from Osteoblast Cell Line MG-63
# The next day, wells are replaced with fresh media. Cells are treated with Vitamin D (Sigma, Cat. No. D1530) to a final concentration of 10 nM, and with the test compounds in concentrations of 10^−6 M to 10^−9 M, in a total volume of 200 μL per well. Samples are done in duplicates. […] Positive control wells receive Vitamin D only, without compounds, and represent maximum (100%) amount of osteocalcin production. Plates are incubated at 37° C. incubator for 48 hours and supernatants are harvested at the end of incubation. Amounts of osteocalcin in the supernatants are determined by the Glype osteocalcin ELISA kit (Zymed, Cat. No. 99-0054) according to manufacture's protocol. Inhibition of osteocalcin by test compounds is expressed in percentage relative to positive controls. IC50 values of the test compounds are derived by non-lineal curve fitting.
# [3] = biological target: T1, human glucocorticoid receptor (GR) complex (Homo sapiens, UniProt P04150); assay: Glucocorticoid receptor competitive binding assay (fluorescence polarization, TAMRA-labeled dexamethasone probe); settings: compounds of Formula (IA)
# T1 construct: made in house; host or cells: insect expression system (baculovirus lysate)
# T1 sequence (P04150 1-777): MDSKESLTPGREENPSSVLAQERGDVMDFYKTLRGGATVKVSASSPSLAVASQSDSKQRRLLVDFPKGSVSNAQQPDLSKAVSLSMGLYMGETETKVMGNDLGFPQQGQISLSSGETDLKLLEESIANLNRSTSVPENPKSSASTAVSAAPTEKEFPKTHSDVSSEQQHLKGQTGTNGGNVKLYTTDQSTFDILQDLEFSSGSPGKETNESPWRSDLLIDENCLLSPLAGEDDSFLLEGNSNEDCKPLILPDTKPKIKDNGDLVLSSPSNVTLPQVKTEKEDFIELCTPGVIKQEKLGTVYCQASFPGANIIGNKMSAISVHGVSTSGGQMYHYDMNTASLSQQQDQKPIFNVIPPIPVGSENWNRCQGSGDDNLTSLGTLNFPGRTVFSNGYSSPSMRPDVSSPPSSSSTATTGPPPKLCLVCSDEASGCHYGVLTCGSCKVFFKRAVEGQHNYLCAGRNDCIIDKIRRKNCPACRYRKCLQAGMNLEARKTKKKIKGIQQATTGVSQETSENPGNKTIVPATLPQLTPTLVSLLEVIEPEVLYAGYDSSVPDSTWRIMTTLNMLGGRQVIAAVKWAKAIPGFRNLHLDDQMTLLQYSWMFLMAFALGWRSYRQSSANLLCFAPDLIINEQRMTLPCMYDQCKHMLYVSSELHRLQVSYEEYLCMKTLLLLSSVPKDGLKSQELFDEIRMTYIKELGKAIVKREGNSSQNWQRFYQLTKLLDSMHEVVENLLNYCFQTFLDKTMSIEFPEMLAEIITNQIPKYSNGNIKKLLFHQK
# Outline: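 Fluorescence-polarization competition against 15 nM TAMRA-dexamethasone (stock added to the mix) for human GR complex from baculovirus lysate diluted 1:170. Buffer: 10 mM TES, 50 mM KCl, 20 mM Na2MoO4, 1.5 mM EDTA, 0.04% CHAPS, 10% glycerol, 1 mM DTT, pH 7.4. IC50 from 4-parameter logistic fit.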
compound,measurement,setting,value
"COc1ccc(-c2cccnc2)cc1C(C)(C)CC(O)(Cc1cc2cc(N3CCCCC3)ncc2[nH]1)C(F)(F)F (centres unmarked) [1,1,1-Trifluoro-4-(2-methoxy-5-pyridin-3-ylphenyl)-4-methyl-2-(5-piperidin-1-yl-1H-pyrrolo[2,3-c]pyridin-2-ylmethyl)pentan-2-ol]",activity as agonists of the glucocorticoid receptor function in one or more of the above assays,[1],potent agonists
same,inhibit the vitamin D stimulated production of osteocalcin,[2],inhibit
"COc1ccc(F)cc1C(C)(C)CC(O)(Cc1cc2cc(-c3ccccc3)ncc2[nH]1)C(F)(F)F (centres unmarked) [1,1,1-Trifluoro-4-(5-fluoro-2-methoxyphenyl)-4-methyl-2-(5-phenyl-1H-pyrrolo[2,3-c]pyridin-2-ylmethyl)pentan-2-ol]",activity as agonists of the glucocorticoid receptor function in one or more of the above assays,[1],potent agonists
same,inhibit the vitamin D stimulated production of osteocalcin,[2],inhibit
"CN(C)c1cc2cc(CC(O)(CC(C)(C)c3cc(F)ccc3O)C(F)(F)F)[nH]c2cn1 (centres unmarked) [2-[3-(5-Dimethylamino-1H-pyrrolo[2,3-c]pyridin-2-ylmethyl)-4,4,4-trifluoro-3-hydroxy-1,1-dimethylbutyl]-4-fluorophenol]",activity as agonists of the glucocorticoid receptor function in one or more of the above assays,[1],potent agonists
same,inhibit the vitamin D stimulated production of osteocalcin,[2],inhibit
"Cc1ccc(F)cc1C(C)(C)CC(O)(Cc1cc2cc(-c3ccccc3)ncc2[nH]1)C(F)(F)F (centres unmarked) [1,1,1-Trifluoro-4-(5-fluoro-2-methylphenyl)-4-methyl-2-(5-phenyl-1H-pyrrolo[2,3-c]pyridin-2-ylmethyl)pentan-2-ol]",activity as agonists of the glucocorticoid receptor function in one or more of the above assays,[1],potent agonists
same,inhibit the vitamin D stimulated production of osteocalcin,[2],inhibit
"CC(C)(CC(O)(Cc1cc2cc(N3CCCCC3)ncc2[nH]1)C(F)(F)F)c1cc(S(C)(=O)=O)cc2c1OCC2 (centres unmarked) [1,1,1-Trifluoro-4-(5-methanesulfonyl-2,3-dihydrobenzofuran-7-yl)-4-methyl-2-(5-piperidin-1-yl-1H-pyrrolo[2,3-c]pyridin-2-ylmethyl)pentan-2-ol]",activity as agonists of the glucocorticoid receptor function in one or more of the above assays,[1],potent agonists
same,inhibit the vitamin D stimulated production of osteocalcin,[2],inhibit
"CC(C)(CC(O)(Cc1cc2cc(C(N)=O)ccc2[nH]1)C(F)(F)F)c1cc(Br)cc2c1OCC2 (centres unmarked) [2-[4-(5-Bromo-2,3-dihydrobenzofuran-7-yl)-2-hydroxy-4-methyl-2-trifluoromethylpentyl]-1H-indole-5-carboxylic acid amide]",activity in the GR binding assay,[3],potent activity
same,activity as agonists of the glucocorticoid receptor function in one or more of the above assays,[1],potent agonists
same,inhibit the vitamin D stimulated production of osteocalcin,[2],inhibit
"CC(C)(CC(O)(Cc1cc2cc(O)ncc2[nH]1)C(F)(F)F)c1cc(-c2ccccc2)ccc1O (centres unmarked) [2-[2-Hydroxy-4-(4-hydroxybiphenyl-3-yl)-4-methyl-2-trifluoromethylpentyl]-1H-pyrrolo[2,3-c]pyridin-5-ol]",activity as agonists of the glucocorticoid receptor function in one or more of the above assays,[1],potent agonists
same,inhibit the vitamin D stimulated production of osteocalcin,[2],inhibit
"CCN(C)c1cc2cc(CC(O)(CC(C)(C)c3cc(F)ccc3C)C(F)(F)F)[nH]c2cn1 (centres unmarked) [2-[5-(Ethylmethylamino)-1H-pyrrolo[2,3-c]pyridin-2-ylmethyl]-1,1,1-trifluoro-4-(5-fluoro-2-methylphenyl)-4-methylpentan-2-ol]",activity as agonists of the glucocorticoid receptor function in one or more of the above assays,[1],potent agonists
same,inhibit the vitamin D stimulated production of osteocalcin,[2],inhibit
"CC(C)(CC(O)(Cc1cc2cc(N3CCOCC3)ncc2[nH]1)C(F)(F)F)c1cccc(Br)c1 (centres unmarked) [4-(3-Bromophenyl)-1,1,1-trifluoro-4-methyl-2-(5-morpholin-4-yl-1H-pyrrolo[2,3-c]pyridin-2-ylmethyl)pentan-2-ol]",activity as agonists of the glucocorticoid receptor function in one or more of the above assays,[1],potent agonists
same,inhibit the vitamin D stimulated production of osteocalcin,[2],inhibit
"Cc1ccc(F)cc1C(C)(C)CC(O)(Cc1cc2cc(N3CCOCC3)ncc2[nH]1)C(F)(F)F (centres unmarked) [1,1,1-Trifluoro-4-(5-fluoro-2-methylphenyl)-4-methyl-2-(5-morpholin-4-yl-1H-pyrrolo[2,3-c]pyridin-2-ylmethyl)pentan-2-ol]",inhibit the vitamin D stimulated production of osteocalcin,[2],inhibit
"Cc1ccc(F)cc1C(C)(C)CC(O)(Cc1cc2cc(N3CCCCC3)ncc2[nH]1)C(F)(F)F (centres unmarked) [1,1,1-Trifluoro-4-(5-fluoro-2-methylphenyl)-4-methyl-2-(5-piperidin-1-yl-1H-pyrrolo[2,3-c]pyridin-2-ylmethyl)pentan-2-ol]",inhibit the vitamin D stimulated production of osteocalcin,[2],inhibit
"Cc1c(CC(O)(CC(C)(C)c2cc(-c3cncnc3)cc3c2OCC3)C(F)(F)F)[nH]c2cnccc12 (centres unmarked) [1,1,1-Trifluoro-4-methyl-2-(3-methyl-1H-pyrrolo[2,3-c]pyridin-2-ylmethyl)-4-(5-pyrimidin-5-yl-2,3-dihydrobenzofuran-7-yl)pentan-2-ol]",activity as agonists of the glucocorticoid receptor function in one or more of the above assays,[1],potent agonists
same,inhibit the vitamin D stimulated production of osteocalcin,[2],inhibit
"CC(C)(CC(O)(Cc1cc2cc(-c3ccccc3)ncc2[nH]1)C(F)(F)F)c1cc(Cl)cc2c1OCC2 (centres unmarked) [4-(5-Chloro-2,3-dihydrobenzofuran-7-yl)-1,1,1-trifluoro-4-methyl-2-(5-phenyl-1H-pyrrolo[2,3-c]pyridin-2-ylmethyl)pentan-2-ol]",activity as agonists of the glucocorticoid receptor function in one or more of the above assays,[1],potent agonists
same,inhibit the vitamin D stimulated production of osteocalcin,[2],inhibit
"COc1ccc(-c2cncnc2)cc1C(C)(C)CC(O)(Cc1cc2cc(N3CCCCC3)ncc2[nH]1)C(F)(F)F (centres unmarked) [1,1,1-Trifluoro-4-(2-methoxy-5-pyrimidin-5-ylphenyl)-4-methyl-2-(5-piperidin-1-yl-1H-pyrrolo[2,3-c]pyridin-2-ylmethyl)pentan-2-ol]",activity as agonists of the glucocorticoid receptor function in one or more of the above assays,[1],potent agonists
same,inhibit the vitamin D stimulated production of osteocalcin,[2],inhibit
"CCN(C)c1cc2cc(CC(O)(CC(C)(C)c3cc(Cl)cc4c3OCC4)C(F)(F)F)[nH]c2cn1 (centres unmarked) [4-(5-Chloro-2,3-dihydrobenzofuran-7-yl)-2-[5-(ethylmethylamino)-1H-pyrrolo[2,3-c]pyridin-2-ylmethyl]-1,1,1-trifluoro-4-methylpentan-2-ol]",activity as agonists of the glucocorticoid receptor function in one or more of the above assays,[1],potent agonists
same,inhibit the vitamin D stimulated production of osteocalcin,[2],inhibit
"Cc1nccc2[nH]c(CC(O)(CC(C)(C)c3cc(Cl)cc4c3OCC4)C(F)(F)F)cc12 (centres unmarked) [4-(5-Chloro-2,3-dihydrobenzofuran-7-yl)-1,1,1-trifluoro-4-methyl-2-(4-methyl-1H-pyrrolo[3,2-c]pyridin-2-ylmethyl)pentan-2-ol]",activity as agonists of the glucocorticoid receptor function in one or more of the above assays,[1],potent agonists
same,inhibit the vitamin D stimulated production of osteocalcin,[2],inhibit
"CC(C)(CC(O)(Cc1cc2cnccc2[nH]1)C(F)(F)F)c1cccc(Cl)c1 (centres unmarked) [4-(3-Chlorophenyl)-1,1,1-trifluoro-4-methyl-2-(1H-pyrrolo[3,2-c]pyridin-2-ylmethyl)pentan-2-ol]",activity as agonists of the glucocorticoid receptor function in one or more of the above assays,[1],potent agonists
same,inhibit the vitamin D stimulated production of osteocalcin,[2],inhibit
CC(C)(CC(O)(Cc1cc2cc(-c3cccnc3)ccc2[nH]1)C(F)(F)F)c1cc(F)cc2c1OCC2 (centres unmarked),inhibit the vitamin D stimulated production of osteocalcin,[2],inhibit
"Cc1cc(F)ccc1C(C)(C)CC(O)(Cc1ccnc2ccccc12)C(F)(F)F (centres unmarked) [1,1,1-Trifluoro-4-(4-fluoro-2-methylphenyl)-4-methyl-2-quinolin-4-ylmethylpentan-2-ol]",activity in the GR binding assay,[3],potent activity
same,activity as agonists of the glucocorticoid receptor function in one or more of the above assays,[1],potent agonists
"COc1ccc(F)cc1C(C)(C)CC(O)(Cc1cc2c(Cl)nc(N)nc2[nH]1)C(F)(F)F (centres unmarked) [2-(2-Amino-4-chloro-7H-pyrrolo[2,3-d]pyrimidin-6-ylmethyl)-1,1,1-trifluoro-4-(5-fluoro-2-methoxyphenyl)-4-methylpentan-2-ol]",activity in the GR binding assay,[3],potent activity
same,activity as agonists of the glucocorticoid receptor function in one or more of the above assays,[1],potent agonists
